One data set can be described thus: clinical. The note with it: human, in vivo, iv, 0.4 ug/kg. How it is done:
Upon entering the scanner, an […] was started in an antecubital vein and subjects were randomly assigned to receive either placebo (saline) or RG1068 (synthetic human secretin). Drug was administered at 0.4 μg/kg via the […] over 1 min. A 3-way stop-clock device with a heparinized line was used to collect blood samples immediately preceding the infusion of RG1068 or placebo and at variable points post infusion for drug pharmacokinetic analysis. Vital signs were monitored for at least 20 minutes after infusion. Prior to the infusion, subjects completed three affective challenge paradigms which had been explained to them before entering the scanner. Subjects completed the same paradigms one hour following infusion with either placebo or RG1068 for pre/post comparison (FIG. 1).
Blood samples were taken over the first 60 minutes post dosing, and samples from subjects receiving RG1068 were used to quantify secretin blood levels. […] Both the Cmax and the elimination rate are consistent with values observed after similar secretin infusions in adults (Christ et al., 1988). Whole brain T2 measures were obtained to verify that no global metabolic effect occurred with the administration of secretin.

The test system of data set [1] is amygdala. The conditions noted are these: healthy subjects; cited from earlier work.
The test system of data set [2] is amygdala. The note with it: depressed patients, versus baseline evaluation; cited from earlier work.

On to `CC(C)C[C@H](NC(=O)CNC(=O)[C@H](CCC(N)=O)NC(=O)[C@H](CC(C)C)NC(=O)[C@H](CC(C)C)NC(=O)[C@H](CCCNC(=N)N)NC(=O)[C@H](CCC(N)=O)NC(=O)[C@H](CC(C)C)NC(=O)[C@H](CCCNC(=N)N)NC(=O)[C@H](C)NC(=O)CNC(=O)[C@H](CCC(=O)O)NC(=O)[C@H](CCCNC(=N)N)NC(=O)[C@H](CC(C)C)NC(=O)[C@H](CCCNC(=N)N)NC(=O)[C@H](CO)NC(=O)[C@H](CC(C)C)NC(=O)[C@H](CCC(=O)O)NC(=O)[C@H](CO)NC(=O)[C@@H](NC(=O)[C@H](Cc1ccccc1)NC(=O)[C@@H](NC(=O)CNC(=O)[C@H](CC(=O)O)NC(=O)[C@H](CO)NC(=O)[C@@H](N)Cc1c[nH]cn1)[C@@H](C)O)[C@@H](C)O)C(=O)N[C@H](C(N)=O)C(C)C` [Secretin, secretin], for which, in the data set “clinical”, the highest level (Cmax) was 5.1 ng/mL and the half-life is 3.7 min.

Consider `C[C@H](N)Cc1ccccc1` [dextroamphetamine], for which the “amygdalar responsivity to facial affect” value in the data set with amygdala [1] is reported as “increased amygdalar responsivity”.

Regarding `COc1ccc(C(CN(C)C)C2(O)CCCCC2)cc1` (stereo not shown) [venlafaxine], the “amygdalar activation to positive stimuli after treatment” value in the data set with amygdala [2] is recorded as “significant increase in activation”.

What is called Cmax is the highest concentration seen after dosing. The half-life is the time needed for the level to fall by half in the phase considered.

The record behind these values is patent publication US8524665B2, “Use of secretin in treatments of disorders associated with the amygdala” (The McLean Hospital Corporation, priority 2003, dated 2013).
